US20050250801A1, “Method of treating cancer with azaspirane compositions” (priority 2003, published 2005)
Read-outs that look alike come from different tables or passages of the source.

Columns and labels:
Format in all cases: cell-based
[1] = test system: MCF7; assay: NCI in vitro SRB assay, Breast Cancer; conditions: for CC50 / GI50: Homo sapiens
Protocol: (§1) An in vitro assay which tested the ability of N,N,-diethyl-8,8-dipropyl-2-azaspiro[4,5]decane-2-propanamine dimaleate (Compound 1) to inhibit the growth of known cancer cell lines was performed by the National Cancer Institute in accordance with standard procedures. See: Lin, Z. X., Hoult, J. R., and Raman, A. Sulphorhodamine B assay for measuring proliferation of a pigmented melanocyte cell line and its application to the evaluation of crude drugs used in the treatment of vitiligo. J Ethnopharmacol. 66: 141-150, 1999. Briefly, selected tumor cell lines were cultured in media containing five different concentrations of Compound 1. After 48 hours of continuous exposure, a sulforhodamine B (SRB) assay was used to estimate cell viability or growth via optical measurements.
(§2) From the measurements, the following values were determined: 1) the concentration of Compound 1 at which a tumor cell growth inhibition of 50% (relative to control) occurs (GI50), 2) the concentration of Compound 1 at which no growth occurs (total growth inhibition, TGI), and 3) the concentration of Compound 1 at which the […] (LC 50). […] FIG. 6 illustrates, graphically, tumor cell growth as a function of Compound 1 concentration of the scanned tumor cell lines.

[2] = test system: NCI/ADR-RES; assay: NCI in vitro SRB assay, Breast Cancer; conditions: for GI50: Homo sapiens
Protocol: as §1, §2

[3] = test system: MDA-MB-231/ATCC; assay: NCI in vitro SRB assay, Breast Cancer; conditions: for GI50 / CC50: Homo sapiens
Protocol: as §1, §2

[4] = test system: BT-549; assay: NCI in vitro SRB assay, Breast Cancer
Protocol: as §1, §2

[5] = test system: SF-268; assay: NCI in vitro SRB assay, CNS Cancer; conditions: for CC50 / GI50: Homo sapiens
Protocol: as §1, §2

[6] = test system: SF-539; assay: NCI in vitro SRB assay, CNS Cancer; conditions: for GI50: Homo sapiens
Protocol: as §1, §2

[7] = test system: U251; assay: NCI in vitro SRB assay, CNS Cancer; conditions: for CC50 / GI50: Homo sapiens; for GI50: U-251
Protocol: as §1, §2

[8] = test system: SF-295; assay: NCI in vitro SRB assay, CNS Cancer; conditions: for CC50 / GI50: Homo sapiens
Protocol: as §1, §2

[9] = read-out: Log10 GI50 (converted)
[10] = MDA-MB-231/ATCC, Log10 conc -4.0 Moles/L
[11] = MDA-MB-231/ATCC, Log10 conc -5.0 Moles/L
[12] = MDA-MB-231/ATCC, Log10 conc -6.0 Moles/L
[13] = MDA-MB-231/ATCC, Log10 conc -7.0 Moles/L
[14] = MDA-MB-231/ATCC, Log10 conc -8.0 Moles/L
[15] = BT-549, Log10 conc -4.0 Moles/L
[16] = BT-549, Log10 conc -5.0 Moles/L
[17] = BT-549, Log10 conc -6.0 Moles/L
[18] = BT-549, Log10 conc -7.0 Moles/L
[19] = BT-549, Log10 conc -8.0 Moles/L
[20] = SF-268, Log10 conc -4.0 Moles/L
[21] = SF-268, Log10 conc -5.0 Moles/L
[22] = SF-268, Log10 conc -6.0 Moles/L
[23] = SF-268, Log10 conc -7.0 Moles/L
[24] = SF-268, Log10 conc -8.0 Moles/L
[25] = SF-295, Log10 conc -4.0 Moles/L
[26] = SF-295, Log10 conc -5.0 Moles/L
[27] = SF-295, Log10 conc -6.0 Moles/L
[28] = SF-295, Log10 conc -7.0 Moles/L
[29] = SF-295, Log10 conc -8.0 Moles/L

With `CCCC1(CCC)CCC2(CCN(CCCN(CC)CC)C2)CC1.O=C(O)/C=C\C(=O)O.O=C(O)/C=C\C(=O)O` [Compound 1, N,N,-diethyl-8,8-dipropyl-2-azaspiro[4,5]decane-2-propanamine dimaleate] the CC50 ([1]; MCF7, read-out: LC50) was 5600 nM, the CC50 ([1]; MCF7, read-out: Log10 LC50 (converted)) was 5620 nM and the GI50 ([1]; MCF7, read-out: GI50) was 1330 nM. The GI50 ([1]; MCF7, read-out: Log10 GI50 (converted)) was 1320 nM, the “Log10 TGI” value ([1]; MCF7) was −5.56 and the TGI ([1]; MCF7) was 2730 nM. The “Mean Optical Densities” value ([1]; MCF7, Log10 conc -4.0 Moles/L) was 0.051, the “Percent Growth” value ([1]; MCF7, Log10 conc -4.0 Moles/L) was −70% and the “Mean Optical Densities” value ([1]; MCF7, Log10 conc -5.0 Moles/L) was 0.017. For the same compound, the “Percent Growth” value ([1]; MCF7, Log10 conc -5.0 Moles/L) was −90%, the “Mean Optical Densities” value ([1]; MCF7, Log10 conc -6.0 Moles/L) was 0.996 and the “Percent Growth” value ([1]; MCF7, Log10 conc -6.0 Moles/L) was 70%. For the same compound, the “Mean Optical Densities” value ([1]; MCF7, Log10 conc -7.0 Moles/L) was 1.339, the “Percent Growth” value ([1]; MCF7, Log10 conc -7.0 Moles/L) was 99% and the “Mean Optical Densities” value ([1]; MCF7, Log10 conc -8.0 Moles/L) was 1.311. For the same compound, the “Percent Growth” value ([1]; MCF7, Log10 conc -8.0 Moles/L) was 96%, the “Log10 TGI” value [2] was −5.40 and the TGI [2] was 3950 nM. The GI50 ([2]; read-out: GI50) was 1830 nM, the GI50 [2, 9] was 1820 nM and the “Mean Optical Densities” value ([2]; Log10 conc -4.0 Moles/L) was 0.081. The “Percent Growth” value ([2]; Log10 conc -4.0 Moles/L) was −85%, the “Mean Optical Densities” value ([2]; Log10 conc -5.0 Moles/L) was 0.208 and the “Percent Growth” value ([2]; Log10 conc -5.0 Moles/L) was −61%. For the same compound, the “Mean Optical Densities” value ([2]; Log10 conc -6.0 Moles/L) was 1.220, the “Percent Growth” value ([2]; Log10 conc -6.0 Moles/L) was 89% and the “Mean Optical Densities” value ([2]; Log10 conc -7.0 Moles/L) was 1.227. For the same compound, the “Percent Growth” value ([2]; Log10 conc -7.0 Moles/L) was 90%, the “Mean Optical Densities” value ([2]; Log10 conc -8.0 Moles/L) was 1.254 and the “Percent Growth” value ([2]; Log10 conc -8.0 Moles/L) was 94%. It also gave a GI50 ([3]; MDA-MB-231, MDA-MB-231/ATCC, read-out: GI50) of 1090 nM, a GI50 ([3]; MDA-MB-231, line printed "231/ATCC" (second line of the wrapped name), read-out: Log10 GI50 (converted)) of 1860 nM and a GI50 ([3]; MDA-MB-231, line printed "MDA-MB-" (first line of MDA-MB-231/ATCC), read-out: Log10 GI50 (converted)) of 1100 nM. The CC50 ([3]; MDA-MB-231, read-out: LC50, MDA-MB-231/ATCC) was 5180 nM, the CC50 ([3]; MDA-MB-231, read-out: Log10 LC50, line printed "231/ATCC" (second line of the wrapped name) (converted)) was 8510 nM and the CC50 ([3]; MDA-MB-231, read-out: Log10 LC50, line printed "MDA-MB-" (first line of MDA-MB-231/ATCC) (converted)) was 5130 nM. For the same compound, the TGI ([3]; MDA-MB-231/ATCC) was 2370 nM, the “Mean Optical Densities” value [3, 10] was 0.038 and the “Percent Growth” value [3, 10] was −94%. For the same compound, the “Mean Optical Densities” value [3, 11] was 0.053, the “Percent Growth” value [3, 11] was −92% and the “Mean Optical Densities” value [3, 12] was 0.839. For the same compound, the “Percent Growth” value [3, 12] was 55%, the “Mean Optical Densities” value [3, 13] was 0.863 and the “Percent Growth” value [3, 13] was 63%. For the same compound, the “Mean Optical Densities” value [3, 14] was 0.897, the “Percent Growth” value [3, 14] was 75% and the “Log10 TGI” value ([3]; line printed "231/ATCC" (second line of the wrapped name)) was −5.40. The “Log10 TGI” value ([3]; line printed "MDA-MB-" (first line of MDA-MB-231/ATCC)) was −5.63, the TGI ([4]; BT-549) was 3230 nM and the “Log10 TGI” value ([4]; BT-549 (so in the source)) was −5.39. For the same compound, the “Mean Optical Densities” value [4, 15] was 0.007, the “Percent Growth” value [4, 15] was −98% and the “Mean Optical Densities” value [4, 16] was 0.027. For the same compound, the “Percent Growth” value [4, 16] was −94%, the “Mean Optical Densities” value [4, 17] was 0.856 and the “Percent Growth” value [4, 17] was 98%. For the same compound, the “Mean Optical Densities” value [4, 18] was 0.904, the “Percent Growth” value [4, 18] was 109% and the “Mean Optical Densities” value [4, 19] was 0.859. For the same compound, the “Percent Growth” value [4, 19] was 98%, the CC50 ([4]; Homo sapiens, BT-549, read-out: LC50) was 5890 nM and the GI50 ([4]; Homo sapiens, BT-549, read-out: GI50) was 1770 nM. For the same compound, the GI50 ([4]; Homo sapiens, BT-549 (so in the source), read-out: Log10 GI50 (converted)) was 1700 nM, the CC50 ([5]; SF-268, read-out: LC50) was 5800 nM and the CC50 ([5]; SF-268, read-out: Log10 LC50 (converted)) was 5750 nM. For the same compound, the GI50 ([5]; SF-268, read-out: GI50) was 1430 nM, the GI50 ([5]; SF-268, read-out: Log10 GI50 (converted)) was 1450 nM and the “Log10 TGI” value ([5]; SF-268) was −5.54. For the same compound, the TGI ([5]; SF-268) was 2880 nM, the “Mean Optical Densities” value [5, 20] was 0.058 and the “Percent Growth” value [5, 20] was −80%. For the same compound, the “Mean Optical Densities” value [5, 21] was 0.033, the “Percent Growth” value [5, 21] was −89% and the “Mean Optical Densities” value [5, 22] was 1.004. The “Percent Growth” value [5, 22] was 75%, the “Mean Optical Densities” value [5, 23] was 1.181 and the “Percent Growth” value [5, 23] was 94%. For the same compound, the “Mean Optical Densities” value [5, 24] was 1.193, the “Percent Growth” value [5, 24] was 95% and the “Log10 TGI” value [6] was −5.50. The TGI [6] was 3130 nM, the GI50 ([6]; read-out: GI50) was 1570 nM and the GI50 [6, 9] was 1580 nM. The “Mean Optical Densities” value ([6]; Log10 conc -4.0 Moles/L) was 0.033, the “Percent Growth” value ([6]; Log10 conc -4.0 Moles/L) was −89% and the “Mean Optical Densities” value ([6]; Log10 conc -5.0 Moles/L) was 0.050. The “Percent Growth” value ([6]; Log10 conc -5.0 Moles/L) was −84%, the “Mean Optical Densities” value ([6]; Log10 conc -6.0 Moles/L) was 0.559 and the “Percent Growth” value ([6]; Log10 conc -6.0 Moles/L) was 83%. For the same compound, the “Mean Optical Densities” value ([6]; Log10 conc -7.0 Moles/L) was 0.612, the “Percent Growth” value ([6]; Log10 conc -7.0 Moles/L) was 100% and the “Mean Optical Densities” value ([6]; Log10 conc -8.0 Moles/L) was 0.591. The “Percent Growth” value ([6]; Log10 conc -8.0 Moles/L) was 93%, the CC50 ([7]; U-251, read-out: LC50) was 4690 nM and the CC50 ([7]; U-251, read-out: Log10 LC50 (converted)) was 4680 nM. The GI50 ([7]; U251, read-out: GI50) was 1030 nM, the GI50 ([7]; U251, read-out: Log10 GI50 (converted)) was 1020 nM and the “Log10 TGI” value ([7]; U251) was −5.66. For the same compound, the TGI ([7]; U251) was 2200 nM, the “Mean Optical Densities” value ([7]; U251, Log10 conc -4.0 Moles/L) was −0.042 and the “Percent Growth” value ([7]; U251, Log10 conc -4.0 Moles/L) was −100%. For the same compound, the “Mean Optical Densities” value ([7]; U251, Log10 conc -5.0 Moles/L) was −0.049, the “Percent Growth” value ([7]; U251, Log10 conc -5.0 Moles/L) was −100% and the “Mean Optical Densities” value ([7]; U251, Log10 conc -6.0 Moles/L) was 0.602. The “Percent Growth” value ([7]; U251, Log10 conc -6.0 Moles/L) was 52%, the “Mean Optical Densities” value ([7]; U251, Log10 conc -7.0 Moles/L) was 0.864 and the “Percent Growth” value ([7]; U251, Log10 conc -7.0 Moles/L) was 88%. The “Mean Optical Densities” value ([7]; U251, Log10 conc -8.0 Moles/L) was 0.885, the “Percent Growth” value ([7]; U251, Log10 conc -8.0 Moles/L) was 90% and the CC50 ([8]; SF-295, read-out: LC50) was 8210 nM. It also gave a CC50 ([8]; SF-295, read-out: Log10 LC50 (converted)) of 8130 nM, a GI50 ([8]; SF-295, read-out: GI50) of 1930 nM and a GI50 ([8]; SF-295, read-out: Log10 GI50 (converted)) of 1950 nM. The “Log10 TGI” value ([8]; SF-295) was −5.40, the TGI ([8]; SF-295) was 3980 nM and the “Mean Optical Densities” value [8, 25] was 0.239. For the same compound, the “Percent Growth” value [8, 25] was −57%, the “Mean Optical Densities” value [8, 26] was 0.202 and the “Percent Growth” value [8, 26] was −64%. The “Mean Optical Densities” value [8, 27] was 1.520, the “Percent Growth” value [8, 27] was 96% and the “Mean Optical Densities” value [8, 28] was 1.653. For the same compound, the “Percent Growth” value [8, 28] was 109%, the “Mean Optical Densities” value [8, 29] was 1.614 and the “Percent Growth” value [8, 29] was 105%.
